Source: patent US6603023B2 (priority 1996, dated 2003)
Read-outs that look alike come from different tables or passages of the source. Marks after values point to notes of the source that are not given here.

Legend:
[1] = test system: human mammary carcinoma MX-1 xenograft; conditions: for Average Body Weight, Day 7: initial weight, first treatment day
Protocol: DMSO was used as a vehicle for epothilones. Each mouse received ≦40 μL DMSO in all experiments.
Athymic nude mice (nu/nu) were used for MX-1 and MCF-7/Adr human mammary carcinoma xenografts. Mice were obtained from Taconic Laboratory Animals and Service (Germantown, N.Y.: outbred, Swiss background).

Human CCRF-CEM Xenograft = experiment: CCRF-CEM xenograft in scid mice; type: in vivo, CB-17 scid mice; conditions: for mice died of drug toxicity: 7 mice
B16 Melanoma = type: in vivo, B6D2F1 mice
Protocol: Body weight was determined at 0, 2, 4, 6, 8, 10 and 12 days. […] Injections were started on day 1. […] Body weight was determined at 0, 2, 4, 6, 8, 10 and 12 days. […] Injections were started on day 1.

[2] = test system: human ovarian adenocarcinoma SK-OV-3; conditions: 0.6 mg/kg i.p. Q2Dx5 from day 9
[3] = 0.3 mg/kg i.p. Q2Dx5 from day 7, day 11
[4] = 0.3 mg/kg i.p. Q2Dx5 from day 7, day 13
[5] = 0.3 mg/kg i.p. Q2Dx5 from day 7, day 15
[6] = 0.3 mg/kg i.p. Q2Dx5 from day 7, day 17
[7] = 0.6 mg/kg i.p. Q2Dx5 from day 7, day 11
[8] = 0.6 mg/kg i.p. Q2Dx5 from day 7, day 13
[9] = 0.6 mg/kg i.p. Q2Dx5 from day 7, day 15
[10] = 0.6 mg/kg i.p. Q2Dx5 from day 7, day 17
[11] = 0.6 mg/kg i.p. Q2Dx5 from day 9
[12] = 0.6 mg/kg i.p. Q2Dx5 from day 9, day 13
[13] = 0.6 mg/kg i.p. Q2Dx5 from day 9, day 15
[14] = 0.6 mg/kg i.p. Q2Dx5 from day 9, day 17
[15] = 0.6 mg/kg i.p. Q2Dx5 from day 9, day 19
[16] = high doses: dEpoB 25, EpoB 0.6, Taxol 10, Vinblastine 0.4 mg/kg i.p. Q2D from day 7
[17] = low doses: dEpoB 15, EpoB 0.3, Taxol 5, Vinblastine 0.2 mg/kg i.p. Q2D day 7-15
[18] = dose 0.7 i.p. QD d7-10,14,15, day 12
[19] = dose 0.7 i.p. QD d7-10,14,15, day 17
[20] = dose 0.7 i.p. QD d7-10,14,15, day 22
[21] = dose 1.0 i.p. QD d7-10,14,15, day 12
[22] = dose 1.0 i.p. QD d7-10,14,15, day 17
[23] = dose 1.0 i.p. QD d7-10,14,15, day 22

## C/C(=C\c1csc(C)n1)[C@@H]1C[C@@H]2O[C@]2(C)CCC[C@H](C)[C@H](O)[C@@H](C)C(=O)C(C)(C)[C@@H](O)CC(=O)O1 [Epothilone B, epothilone B]
[1]; 0.3 mg/kg i.p. Q2Dx5 from day 7
  Toxicity Death: 0/7
[1]; [3]
  Average Body Weight Change: +0.5 g
  Average Tumor Size (T/C): 1.00
[1]; [4]
  Average Body Weight Change: +0.4 g
  Average Tumor Size (T/C): 0.71
[1]; [5]
  Average Body Weight Change: -0.3 g
  Average Tumor Size (T/C): 0.71
[1]; [6]
  Average Body Weight Change: -1.2 g
  Average Tumor Size (T/C): 0.84
[1]; 0.6 mg/kg i.p. Q2Dx5 from day 7
  Toxicity Death: 3/7)##
[1]; [7]
  Average Body Weight Change: -0.3 g
  Average Tumor Size (T/C): 1.08
[1]; [8]
  Average Body Weight Change: -1.3 g
  Average Tumor Size (T/C): 0.73
[1]; [9]
  Average Body Weight Change: -2.1 g
  Average Tumor Size (T/C): 0.81
[1]; [10]
  Average Body Weight Change: -2.1 g
  Average Tumor Size (T/C): 0.74
[1]; [11]
  Toxicity Death: 0/6
  Tumor Disapp.: 0/6
[1]; [12]
  Average Body Weight Change: -0.9 g
  Average Tumor Size (T/C): 0.67
[1]; [13]
  Average Body Weight Change: 0.5 g
  Average Tumor Size (T/C): 0.63
[1]; [14]
  Average Body Weight Change: -3.3 g
  Average Tumor Size (T/C): 0.61
[1]; [15]
  Average Body Weight Change: -3.4 g
  Average Tumor Size (T/C): 0.51
[1]; EpoB 0.3 mg/kg i.p. days 7-15
  average body weight decrease: over 1 g
[1]; EpoB 0.6 mg/kg i.p. days 7-15
  average body weight decrease: > 2 g
  mice died of toxicity: three out of seven
[1]; MX-1, i.p., comparison with Camptothecin, VBL, EpoB (order wraps over rows r7-r8)
  Therapeutic effect Rank Order: Taxol ® > VBL, EpoB
[1]; [16]
  Average Body Weight (change), Day 11: -0.3 g
  Average Body Weight (change), Day 13: -1.3 g
  Average Body Weight (change), Day 15: -2.1 g
  Average Body Weight Change, Day 17: -2.1 g
  Average Tumor Volume (T/C), Day 11: 1.08 T/C
  Average Tumor Volume (T/C), Day 13: 0.73 T/C
  Average Tumor Volume (T/C), Day 15: 0.81 T/C
  Average Tumor Volume (T/C), Day 17: 0.74 T/C
  Note: died (mice died/total): 3/7 died
  Average Body Weight, Day 7: 27.4 g
[1]; [17]
  Average Body Weight, Day 7: 26.9 g
  Average Body Weight (change), Day 11: +0.5 g
  Average Body Weight (change), Day 13: +0.4 g
  Average Body Weight (change), Day 15: -0.3 g
  Average Body Weight Change, Day 17: -1.2 g
  Average Tumor Volume (T/C), Day 11: 1.00 T/C
  Average Tumor Volume (T/C), Day 13: 0.71 T/C
  Average Tumor Volume (T/C), Day 15: 0.71 T/C
  Average Tumor Volume (T/C), Day 17: 0.84 T/C
  Note: died (mice died/total): 0/7 died
Human CCRF-CEM Xenograft; Epo B dose 0.7 i.p., day 19 & 20
  mice died of drug toxicity: ^4.Two mice died of drug toxicity on day 19 & 20.
Human CCRF-CEM Xenograft; Epo B dose 1.0 i.p., day 18, 19 and 21
  mice died of drug toxicity: ^5.Three mice died of drug toxicity on day 18, 19 and 21.
Human CCRF-CEM Xenograft; dose 0.7 i.p. QD d7-10,14,15, day 7
  Average weight change: −0.1
Human CCRF-CEM Xenograft; [18]
  Average tumor volume (control = 1.00): 0.53
  Average weight change: −0.7
Human CCRF-CEM Xenograft; [19]
  Average tumor volume (control = 1.00): 0.48
  Average weight change: −1.4
Human CCRF-CEM Xenograft; [20]
  Average tumor volume (control = 1.00): 0.46
  Average weight change: +0.3
Human CCRF-CEM Xenograft; dose 1.0 i.p. QD d7-10,14,15, day 7
  Average weight change: +0.1
Human CCRF-CEM Xenograft; [21]
  Average tumor volume (control = 1.00): 0.46
  Average weight change: −1.5
Human CCRF-CEM Xenograft; [22]
  Average tumor volume (control = 1.00): 0.35
  Average weight change: −2.4
Human CCRF-CEM Xenograft; [23]
  Average tumor volume (control = 1.00): 0.43
  Average weight change: +0.1
B16 Melanoma; 0.4 mg/kg QD × 6 from day 1, day 7
  Average Tumor Volume (T/C): 1.07
B16 Melanoma; 0.8 mg/kg QD × 5 from day 1
  # Mice Died: 5/8
B16 Melanoma; 0.8 mg/kg QD × 5 from day 1, day 9
  Average Tumor Volume (T/C): 0.46
B16 Melanoma; B16 Melanoma, i.p.
  Therapeutic effect Rank Order: dEpoB > Taxol ® >> EpoB
[2]
  Toxicity Death: 0/6
  Tumor Disapp.: 0/6
[2]; day 13
  Average Body Weight Change: -0.9 g
[2]; day 15
  Average Body Weight Change: -0.5 g
  Average Tumor Size (T/C): 0.75
[2]; day 17
  Average Body Weight Change: -3.3 g
  Average Tumor Size (T/C): 0.69
[2]; day 19
  Average Body Weight Change: -3.4 g
  Average Tumor Size (T/C): 0.88
[2]; day 21
  Average Tumor Size (T/C): 0.77
